The numbers were not newly measured in PMC11435065, “Inhibition of P-Glycoprotein Asymmetrically Alters the In Vivo Exposure Profile of SGC003F: A Novel Guanylate Cyclase Stimulator” (Pharmaceuticals, 2024), which cites them from elsewhere.

On the set-up of the data set: method as in PMID 24398461. Particulars: rats, one hour after administration, with 1.0 mg/kg tariquidar; cited from earlier work.

With `CN(C)C(=O)C(CCN1CCC(O)(c2ccc(Cl)cc2)CC1)(c1ccccc1)c1ccccc1` [loperamide], the “Increase of loperamide levels in the brain” value is reported as 2.3 fold.
